Test [1] addresses T1, Tau K18 fragment aggregates (amino acids 244 to 372 of human Tau441) (Homo sapiens, UniProt P10636).
T1 construct: encompassing amino acids 244 to 372 of the longest isoform (2N4R) of human Tau441; host or cells: bacteria
In words: Tau K18 disaggregation assay by ThT. It is filed as biochemical. Conditions: 2 μM K18 aggregates, compounds 160 to 0.04 μM, 30 min RT, ThT fluorescence. The protocol: Compounds were dissolved in anhydrous dimethyl sulfoxide (DMSO, Sigma-Aldrich) to reach a concentration of 10 mM. K18 aggregates and serial dilutions of compounds were mixed together in PBS (volume 50 μL) to a final concentration of 2 μM of K18 aggregates and from 160 to 0.04 μM of compounds. The mixture was incubated for 30 minutes at room temperature (RT), then 40 μL of this mixture were transferred into a black 384-well plate assay (Perkin-Elmer) and mixed with 10 μL of 100 μM ThT in 250 mM glycine (both from Sigma-Aldrich) in PBS. Fluorescence (relative fluorescence units; RFU) was measured in monoplicate or duplicate on a Tecan reader (excitation: 440 nm; emission: 485 nm). Percentage of K18 disaggregation was then calculated and half maximal effective concentration (EC50) was determined using GraphPad Prism version 5 (GraphPad Software) assuming a one-binding site fitting model.

For test [2], the system named is human neuroblastoma cell line overexpressing full-length human Tau carrying the P301L mutation. In words: Reduction of intracellular Tau aggregation (AlphaLISA). It is filed as cell-based. Conditions: compound at 5 μM, 24 h; aggregated Tau normalized to total Tau, relative to DMSO-treated cells. On the procedure: A human neuroblastoma cell line overexpressing the full-length form of human Tau carrying the P301 L mutation was cultured in complete medium [DMEM-F12 4.5 g/L Glutamax (Invitrogen), 15% FBS (Biochrom), 1% Peni/Strep (Invitrogen) supplemented with 2.5 μg/ml of G418 (Sigma-Aldrich) selection antibiotic]. The day before the experiment 5×10^5 cells/well were plated in a 6 well plate in 3 mL of complete medium. The next day, cells were incubated with DMSO or a compound of the present invention at 5 μM for additional 24 h at 37° C. […]
Phosphorylated, aggregated, and total Tau were quantified by AlphaLisa using the following antibody pairs: • HT7-Acceptor beads+biotin (BT)-Tau13-Donor beads: Total Tau • HT7-Acceptor beads+biotin (BT)-HT7-Donor beads: Aggregated human Tau […]
After incubation of this mixture at room temperature for 1 h, 25 μL of Streptavidin Donor beads (Perkin Elmer) at 25 μg/mL were added in the dark. Plates were analyzed after 30 min incubation using the EnSpire Alpha instrument and EnSpire Workstation version 3.00. Data for aggregated Tau were normalized to total Tau and then expressed as percentage of the DMSO-treated cells.
A general note: In Alpha technology, singlet oxygen from a donor bead excites a nearby acceptor bead.

SMILES strings stand for the structures.

T1 sequence (P10636 561-689): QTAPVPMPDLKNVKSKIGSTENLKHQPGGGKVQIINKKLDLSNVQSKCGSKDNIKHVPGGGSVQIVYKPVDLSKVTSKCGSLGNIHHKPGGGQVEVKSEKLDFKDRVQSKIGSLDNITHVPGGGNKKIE

One may read the EC50 as the concentration needed to bring the measured effect to its halfway point. Read a low EC50 as a more potent agent. The compound `Fc1ccc2[nH]c3c(c2c1)CC1CCC3N1c1ccc(N2CCOCC2)cn1` (centres unmarked) [Example 47] came in with an EC50 in test [1] of 10 to 25 µM.
As for `c1ccc2c3c([nH]c2c1)CN(c1ccc(N2CCOCC2)nc1)CC3` [Example 44], the “% Reduction of intracellular Tau aggregation” value in test [2] is given as “+++ (+++ % >50)”.

For the origin of these results see patent US20230255976A1, “Novel Compounds for the Treatment, Alleviation or Prevention of Disorders Associated with Tau Aggregates” (AC Immune SA, priority 2018, published 2023).
